Assay results taken from patent EP4656642A1, “ESTROGEN RECEPTOR PROTEOLYSIS TARGETING CHIMERA COMPOUND AND USE THEREOF” (GAN & LEE PHARM CO., LTD, priority 2023, dated 2024).

Assays:
Format in all cases: cell-based
T-47D cells = assay: Inhibition of cell proliferation in T-47D cells (CCK-8, 6 days); conditions: 6 days of treatment
Summary of the method: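 Viability read-out was CCK-8 after 6 days of compound treatment (37 °C, 5% CO2) across graded concentrations. Cells were T-47D seeded at 3,000 per well in 1640 medium plus 10% FBS. IC50 was calculated against proliferation.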

MCF-7 cells = assay: Inhibition of cell proliferation of MCF-7 cells (CCK-8, 9 days)
Summary of the method: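 Read-out was CCK-8 viability after 9-day continuous exposure (37°C, 5% CO2) of MCF-7 cells plated at 800/well in 10% FBS DMEM across several compound concentrations. Values are proliferation IC50s.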

ERα [1] = target: T1, ERα (Homo sapiens, UniProt P03372); assay: Degradation of ERα in MCF-7 cells (immunoblotting, 4 h)
T1 sequence (P03372 1-595): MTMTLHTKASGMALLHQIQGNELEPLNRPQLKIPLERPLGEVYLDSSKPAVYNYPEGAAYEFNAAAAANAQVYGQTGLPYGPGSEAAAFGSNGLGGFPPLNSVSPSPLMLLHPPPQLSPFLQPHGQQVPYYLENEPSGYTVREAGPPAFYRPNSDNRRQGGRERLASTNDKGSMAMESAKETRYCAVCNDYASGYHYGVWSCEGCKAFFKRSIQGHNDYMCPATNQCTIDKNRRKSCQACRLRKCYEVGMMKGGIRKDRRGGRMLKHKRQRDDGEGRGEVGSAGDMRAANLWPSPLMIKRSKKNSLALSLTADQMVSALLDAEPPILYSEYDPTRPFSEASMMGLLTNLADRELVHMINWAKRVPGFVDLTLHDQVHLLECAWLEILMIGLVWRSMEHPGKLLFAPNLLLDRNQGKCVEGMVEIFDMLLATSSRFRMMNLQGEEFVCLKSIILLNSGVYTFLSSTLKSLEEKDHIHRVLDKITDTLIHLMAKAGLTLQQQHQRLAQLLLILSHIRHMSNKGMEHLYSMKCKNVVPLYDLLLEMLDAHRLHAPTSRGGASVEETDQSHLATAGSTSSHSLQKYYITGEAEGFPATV
Summary of the method: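 Degradation rate reflects ERα band intensity, corrected to an internal reference protein, relative to control. Values come from Western blotting of lysates from MCF-7 cells exposed 4 h at 37°C to compounds at final concentrations of 0.15-1000nM.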

ERα [2] = target: T1, ERα; assay: Degradation of ERα in T-47D cells (immunoblotting, 4 h); design: host or cells: T-47D
Summary of the method: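 ERα protein levels were assessed by immunoblot of RIPA lysates (with protease inhibitor) after 4 h exposure at 37°C. Compound was added in DMSO to T-47D cells at final concentrations of 0.15-1000 nM.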

[3] = treated for 9 days, CCK-8 kit (Table 6)

SMILES | IC50 (T-47D cells; Table 3) | IC50 (MCF-7 cells; [3]) | Degradation rate (%) of ERα in MCF-7 cells (ERα [1]; 1nM compound) | Degradation rate (%) of ERα in MCF-7 cells (ERα [1]; 10nM compound) | Degradation rate (%) of ERα in T-47D cells (ERα [2]; 1nM compound) | Degradation rate (%) of ERα in T-47D cells (ERα [2]; 10nM compound) | IC50 (T-47D cells; Table 2) | IC50 (MCF-7 cells; 9 days of treatment, CCK-8, Table 5)
C[C@@H]1Cc2c(ccc3[nH]ncc23)[C@@H](c2c(F)cc(N3CCN(C[C@H]4CC[C@H](C(=O)N5CCC6(CC5)COc5c6ccc6c5CN(C5CCC(=O)NC5=O)C6=O)CC4)CC3)cc2F)N1CC(F)F (some centres unmarked) [C12] | 37.4 nM | 180 nM | -34% | 22% | 27% | 47% |  | 
O=C1CCC(N2Cc3cc4c(cc3C2=O)CCC2(CN(C3CCC5(CC3)CN(c3ccc([C@@H]6c7ccc(O)cc7CC[C@@H]6c6ccccc6)cc3)C5)C2)O4)C(=O)N1 (some centres unmarked) [B10] | 3 nM | 37 nM | 3% | 23% | 5% | 46% | 6.6 nM | 40 nM
O=C1CCC(N2Cc3c(ccc4c3OCC43CCN(C4CCN(C5CCN(c6ccc([C@@H]7c8ccc(O)cc8CC[C@@H]7c7ccccc7)cc6)CC5)CC4)CC3)C2=O)C(=O)N1 (some centres unmarked) [A54] | 6.16 nM | < 0.256 nM | 40% | 65% | 15% | 62% |  | 
C[C@@H]1Cc2c(ccc3[nH]ncc23)[C@@H](c2c(F)cc(N3CCC(C(=O)N4CCC(N5CCC6(CC5)COc5c6ccc6c5CN(C5CCC(=O)NC5=O)C6=O)CC4)CC3)cc2F)N1CC(F)F (some centres unmarked) [B38] | 1.23 nM | 90.5 nM | 63% | 57% | 57% | 63% |  | 
O=C1CCC(N2C(=O)c3cc4c(cc3C2=O)OC2(CC4)CN(CC3CC4(CCN(c5ccc([C@@H]6c7ccc(O)cc7CC[C@@H]6c6ccccc6)cc5)CC4)C3)C2)C(=O)N1 (some centres unmarked) [B11] | 55 nM | 4610 nM | -40% | -16% | -34% | -38% |  | 
O=C1CCC(N2Cc3ccc4c(c3C2=O)OCC42CCN(C3CCN(C(=O)C4CCN(c5ccc([C@@H]6c7ccc(O)cc7CC[C@@H]6c6ccccc6)cc5)CC4)CC3)CC2)C(=O)N1 (some centres unmarked) [A94] | 2.74 nM | 45 nM | 22% | 48% | 54% | 80% |  | 

Second part, the compound after the results:

IC50 (T-47D cells; Table 3) | IC50 (MCF-7 cells; [3]) | Degradation rate (%) of ERα in MCF-7 cells (ERα [1]; 1nM compound) | Degradation rate (%) of ERα in MCF-7 cells (ERα [1]; 10nM compound) | Degradation rate (%) of ERα in T-47D cells (ERα [2]; 1nM compound) | Degradation rate (%) of ERα in T-47D cells (ERα [2]; 10nM compound) | IC50 (T-47D cells; Table 2) | IC50 (MCF-7 cells; 9 days of treatment, CCK-8, Table 5) | SMILES
17.9 nM | 925 nM | -11% | -6% | 14% | 29% |  |  | O=C1CCC(N2Cc3ccc4c(c3C2=O)CC2(CCN(C3CCC5(CC3)CN(c3ccc([C@@H]6c7ccc(O)cc7CC[C@@H]6c6ccccc6)cc3)C5)CC2)CO4)C(=O)N1 (some centres unmarked) [L10]
5 nM | 130 nM | 23% | 44% | 25% | 54% |  |  | O=C1CCC(N2Cc3ccc4c(c3C2=O)OCC2(CCN(C3CCC5(CC3)CCN(c3ccc([C@@H]6c7ccc(O)cc7CC[C@@H]6c6ccccc6)cc3)CC5)CC2)C4)C(=O)N1 (some centres unmarked) [L3]
